Laboratory results reported in ChEMBL document CHEMBL4308841, “Synthesis, in vitro antiproliferative activity, and kinase inhibitory effects of pyrazole-containing diarylureas and diarylamides” (Eur J Med Chem, 2018).

What was measured:
Malme-3M [1] = assay: Growth inhibition of human MALME-3M cells assessed as cell growth at 1 uM incubated for 48 hrs by sulforhodamine B assay relative to control; type: functional; conditions: read-out: Activity
SK-MEL-5 [2] = assay: Growth inhibition of human SK-MEL-5 cells assessed as cell growth at 100 uM incubated for 48 hrs by sulforhodamine B assay relative to control; type: functional; conditions: SK-MEL-5, 48 h, read-out: Activity
NCI/ADR-RES [3] = assay: Growth inhibition of human NCI/ADR-RES cells assessed as cell growth at 0.01 uM incubated for 48 hrs by sulforhodamine B assay relative to control; type: functional; conditions: read-out: Activity
RXF 393 = assay: Growth inhibition of human RXF393 cells incubated for 48 hrs by sulforhodamine B assay; type: functional, cell-based; conditions: RXF 393, 48 h
SR [4] = assay: Growth inhibition of human SR cells incubated for 48 hrs by sulforhodamine B assay; type: functional, cell-based
SF-539 = assay: Growth inhibition of human SF539 cells assessed as cell growth at 100 uM incubated for 48 hrs by sulforhodamine B assay relative to control; type: functional; conditions: SF-539, 48 h, read-out: Activity
MDA-MB-468 = assay: Growth inhibition of human MDA-MB-468 cells incubated for 48 hrs by sulforhodamine B assay; type: functional, cell-based; conditions: MDA-MB-468, 48 h
UACC-62 [5] = assay: Growth inhibition of human UACC62 cells incubated for 48 hrs by sulforhodamine B assay; type: functional, cell-based; conditions: UACC-62, 48 h
NCI-H23 [6] = assay: Growth inhibition of human NCI-H23 cells assessed as cell growth at 100 uM incubated for 48 hrs by sulforhodamine B assay relative to control; type: functional; conditions: NCI-H23, 48 h, read-out: Activity
HCT-116 [7] = assay: Growth inhibition of human HCT116 cells assessed as cell growth at 0.1 uM incubated for 48 hrs by sulforhodamine B assay relative to control; type: functional; conditions: HCT-116, 48 h, read-out: Activity
OVCAR-3 [8] = assay: Growth inhibition of human OVCAR3 cells incubated for 48 hrs by sulforhodamine B assay; type: functional, cell-based; conditions: OVCAR-3, 48 h
HCT-15 = assay: Growth inhibition of human HCT15 cells assessed as cell growth at 0.1 uM incubated for 48 hrs by sulforhodamine B assay relative to control; type: functional; conditions: HCT-15, 48 h, read-out: Activity
NCI-H226 = assay: Growth inhibition of human NCI-H226 cells assessed as cell growth at 0.01 uM incubated for 48 hrs by sulforhodamine B assay relative to control; type: functional; conditions: NCI-H226, 48 h, read-out: Activity
786-0 = assay: Growth inhibition of human 786-0 cells incubated for 48 hrs by sulforhodamine B assay; type: functional, cell-based; conditions: 786-0, 48 h
OVCAR-5 = assay: Growth inhibition of human OVCAR5 cells assessed as cell growth at 100 uM incubated for 48 hrs by sulforhodamine B assay relative to control; type: functional; conditions: OVCAR-5, 48 h, read-out: Activity
OVCAR-3 [9] = assay: Growth inhibition of human OVCAR3 cells assessed as cell growth at 0.01 uM incubated for 48 hrs by sulforhodamine B assay relative to control; type: functional; conditions: OVCAR-3, 48 h, read-out: Activity
SK-MEL-28 [10] = assay: Growth inhibition of human SK-MEL-28 cells assessed as cell growth at 100 uM incubated for 48 hrs by sulforhodamine B assay relative to control; type: functional; conditions: SK-MEL-28, 48 h, read-out: Activity
T47D = assay: Growth inhibition of human T47D cells assessed as cell growth at 0.01 uM incubated for 48 hrs by sulforhodamine B assay relative to control; type: functional; conditions: read-out: Activity
Malme-3M [11] = assay: Growth inhibition of human MALME-3M cells assessed as cell growth at 100 uM incubated for 48 hrs by sulforhodamine B assay relative to control; type: functional; conditions: read-out: Activity
SR [12] = assay: Growth inhibition of human SR cells assessed as cell growth at 1 uM incubated for 48 hrs by sulforhodamine B assay relative to control; type: functional; conditions: read-out: Activity
SK-MEL-5 [13] = assay: Growth inhibition of human SK-MEL-5 cells assessed as cell growth at 0.1 uM incubated for 48 hrs by sulforhodamine B assay relative to control; type: functional; conditions: SK-MEL-5, 48 h, read-out: Activity
SK-MEL-2 = assay: Growth inhibition of human SK-MEL-2 cells assessed as cell growth at 1 uM incubated for 48 hrs by sulforhodamine B assay relative to control; type: functional; conditions: SK-MEL-2, 48 h, read-out: Activity
NCI-H522 = assay: Growth inhibition of human NCI-H522 cells assessed as cell growth at 10 uM incubated for 48 hrs by sulforhodamine B assay relative to control; type: functional; conditions: NCI-H522, 48 h, read-out: Activity
HCT-116 [14] = assay: Growth inhibition of human HCT116 cells incubated for 48 hrs by sulforhodamine B assay; type: functional, cell-based; conditions: HCT-116, 48 h
NCI-H23 [15] = assay: Growth inhibition of human NCI-H23 cells assessed as cell growth at 1 uM incubated for 48 hrs by sulforhodamine B assay relative to control; type: functional; conditions: NCI-H23, 48 h, read-out: Activity
SK-MEL-28 [16] = assay: Growth inhibition of human SK-MEL-28 cells assessed as cell growth at 0.1 uM incubated for 48 hrs by sulforhodamine B assay relative to control; type: functional; conditions: SK-MEL-28, 48 h, read-out: Activity
NCI/ADR-RES [17] = assay: Growth inhibition of human NCI/ADR-RES cells assessed as cell growth at 1 uM incubated for 48 hrs by sulforhodamine B assay relative to control; type: functional; conditions: read-out: Activity
UACC-62 [18] = assay: Growth inhibition of human UACC62 cells assessed as cell growth at 100 uM incubated for 48 hrs by sulforhodamine B assay relative to control; type: functional; conditions: UACC-62, 48 h, read-out: Activity
M14 = assay: Growth inhibition of human M14 cells assessed as cell growth at 0.1 uM incubated for 48 hrs by sulforhodamine B assay relative to control; type: functional; conditions: M14, 48 h, read-out: Activity
[19] = read-out: LC50 (the source's name)
[20] = read-out: pLC50 (the source's name) (converted)

COc1cc(Cl)cc(-c2nn(-c3cccc(NC(=O)Nc4ccc(Cl)c(Cl)c4)c3)cc2-c2ccncc2)c1
growth at 1 µM (Malme-3M [1]): 77%
growth at 100 µM (SK-MEL-5 [2]): -68%
growth at 0.01 µM (NCI/ADR-RES [3]): 97%
LC50 (RXF 393): > 100 µM
GI50 (RXF 393; read-out: GI50): 1.96 µM
TGI (RXF 393; read-out: TGI): 72.5 µM
GI50 (RXF 393; read-out: pGI50 (converted)): 1.95 µM
TGI (RXF 393; read-out: pTGI (converted)): 7.24 µM
GI50 (SR [4]; read-out: GI50): 1.54 µM
CC50 (SR [4]; [19]): > 100 µM
TGI (SR [4]; read-out: TGI): 53 µM
GI50 (SR [4]; read-out: pGI50 (converted)): 1.55 µM
CC50 (SR [4]; [20]): > 100 µM
TGI (SR [4]; read-out: pTGI (converted)): 5.75 µM
growth at 100 µM (SF-539): -40%
IC50 (MDA-MB-468): 1.74 µM
GI50 (MDA-MB-468; read-out: GI50): 1.74 µM
CC50 (MDA-MB-468; [19]): > 100 µM
TGI (MDA-MB-468; read-out: TGI): 73.7 µM
GI50 (MDA-MB-468; read-out: pGI50 (converted)): 1.74 µM
CC50 (MDA-MB-468; [20]): > 100 µM
TGI (MDA-MB-468; read-out: pTGI (converted)): 7.41 µM
IC50 (UACC-62 [5]): 2.4 µM
GI50 (UACC-62 [5]; read-out: GI50): 2.4 µM
CC50 (UACC-62 [5]; [19]): > 100 µM
TGI (UACC-62 [5]; read-out: TGI): 16.3 µM
GI50 (UACC-62 [5]; read-out: pGI50 (converted)): 2.4 µM
CC50 (UACC-62 [5]; [20]): > 100 µM
TGI (UACC-62 [5]; read-out: pTGI (converted)): 16.2 µM
growth at 100 µM (NCI-H23 [6]): -20%
growth at 0.1 µM (HCT-116 [7]): 100%
IC50 (OVCAR-3 [8]): 1.56 µM
GI50 (OVCAR-3 [8]; read-out: GI50): 1.56 µM
CC50 (OVCAR-3 [8]; [19]): > 100 µM
TGI (OVCAR-3 [8]; read-out: TGI): 29.4 µM
GI50 (OVCAR-3 [8]; read-out: pGI50 (converted)): 1.55 µM
CC50 (OVCAR-3 [8]; [20]): > 100 µM
TGI (OVCAR-3 [8]; read-out: pTGI (converted)): 29.5 µM
growth at 0.1 µM (HCT-15): 53%
growth at 0.01 µM (NCI-H226): 96%
GI50 (786-0; read-out: GI50): 2.31 µM
CC50 (786-0; [19]): > 100 µM
TGI (786-0; read-out: TGI): 75.4 µM
GI50 (786-0; read-out: pGI50 (converted)): 2.29 µM
CC50 (786-0; [20]): > 100 µM
TGI (786-0; read-out: pTGI (converted)): 7.76 µM
growth at 100 µM (OVCAR-5): 9%
growth at 0.01 µM (OVCAR-3 [9]): 100%
growth at 100 µM (SK-MEL-28 [10]): -7%
growth at 0.01 µM (T47D): 94%
growth at 100 µM (Malme-3M [11]): -24%
growth at 1 µM (SR [12]): 68%
growth at 0.1 µM (SK-MEL-5 [13]): 96%
growth at 1 µM (SK-MEL-2): 80%
growth at 10 µM (NCI-H522): -19%
IC50 (HCT-116 [14]): 2.02 µM
GI50 (HCT-116 [14]; read-out: GI50): 2.02 µM
CC50 (HCT-116 [14]; [19]): > 100 µM
TGI (HCT-116 [14]; read-out: TGI): > 100 µM
GI50 (HCT-116 [14]; read-out: pGI50 (converted)): 2.04 µM
CC50 (HCT-116 [14]; [20]): > 100 µM
TGI (HCT-116 [14]; read-out: pTGI (converted)): > 100 µM
growth at 1 µM (NCI-H23 [15]): 89%
growth at 0.1 µM (SK-MEL-28 [16]): 103%
growth at 1 µM (NCI/ADR-RES [17]): 78%
growth at 100 µM (UACC-62 [18]): -32%
growth at 0.1 µM (M14): 100%
